{"source": "patent US6986896B2", "about": "“Method of treating fungal conditions of the skin” (Bradley Pharmaceuticals, Inc., priority 2002, dated 2006)", "system": "Trychophyton rubrum", "test": "Percent kill rate of topical products inoculated with T. rubrum (residual microbial content by serial dilution)", "format": "cell-based", "method": "Various compositions, e.g. creams, lotions, and gels, containing urea as the sole active ingredient at various concentrations were tested against Trychophyton rubrum, a fungus typically implicated in Moccasin tinea pedis and onychomycosis, and compared to traditional antifungal compositions. A solution of the individual or combination products were inoculated with a known starting concentration of T. rubrum. These solutions were then retested at the specific time intervals to determine the residual microbial content.\nThe decrease in the residual microbial content calculated as a percentage of its initial starting concentration is the percent kill rate reported in the following table."}
{"smiles": "NC(N)=O", "note": "[urea]", "values": [{"measurement": "antifungal activity (conclusion from the kill rate tests)", "value": "effective antifungal agent"}]}
